Measured values published in patent publication US11478474B2, “2-(3′-(hydroxymethyl)-1-methyl-5-((5-(2-methyl-4-(oxetan-3-yl)piperazin-1-yl)pyridin-2-yl)amino)-6-oxo-1,6-dihydro-[3,4′-bipyridin]-2′-yl)-7,7-dimethyl-7,8-dihydro-2H-cyclopenta[4,5]pyrrolo[1,2-a]pyrazin-1(6H)-one as a BTK inhibitor” (HUTCHISON MEDIPHARMA LIMITED, priority 2020, dated 2022).
Blank lines part the entries; values can stand above or below the compound they belong to.

Legend:
[1] = target: BTK recombinant protein (Homo sapiens (Human), UniProt Q06187); experiment: Determination of biochemical BTK (Z'-LYTE kinase assay)
In short: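 Human BTK recombinant kinase (3.32 nM final) was preincubated with compound for 30 min at 4 °C. Reaction ran 1 h at room temperature with Tyr01 FRET peptide (2 μM) and ATP (32 μM); development protease then added. Coumarin 445 nm/fluorescein 520 nm emission ratio (400 nm excitation) gave inhibition across 8 concentrations, 3000–1.37 nM.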

[2] = target: phosphorylated BTK in Ramos cells (Homo sapiens (Human), UniProt Q06187); experiment: Determination of phosphorylated BTK in Ramos cells (BTK phospho-Y223 HTRF); type: cell-based; conditions: anti-human IgM + hydrogen peroxide stimulation
In short: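 BTK Y223 phosphorylation measured by HTRF (665/615 nm) in lysates of Ramos cells. Cells were serum-starved 2 h, exposed to compound for 1 h (final 0.00018–3.0 μM, 0.3% DMSO), then stimulated 10 min with 10 μg/mL anti-IgM and 3.3 mM H2O2. IC50 derived from percent inhibition between unstimulated and stimulated controls.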

Chain of BTK recombinant protein (Q06187 whole entry): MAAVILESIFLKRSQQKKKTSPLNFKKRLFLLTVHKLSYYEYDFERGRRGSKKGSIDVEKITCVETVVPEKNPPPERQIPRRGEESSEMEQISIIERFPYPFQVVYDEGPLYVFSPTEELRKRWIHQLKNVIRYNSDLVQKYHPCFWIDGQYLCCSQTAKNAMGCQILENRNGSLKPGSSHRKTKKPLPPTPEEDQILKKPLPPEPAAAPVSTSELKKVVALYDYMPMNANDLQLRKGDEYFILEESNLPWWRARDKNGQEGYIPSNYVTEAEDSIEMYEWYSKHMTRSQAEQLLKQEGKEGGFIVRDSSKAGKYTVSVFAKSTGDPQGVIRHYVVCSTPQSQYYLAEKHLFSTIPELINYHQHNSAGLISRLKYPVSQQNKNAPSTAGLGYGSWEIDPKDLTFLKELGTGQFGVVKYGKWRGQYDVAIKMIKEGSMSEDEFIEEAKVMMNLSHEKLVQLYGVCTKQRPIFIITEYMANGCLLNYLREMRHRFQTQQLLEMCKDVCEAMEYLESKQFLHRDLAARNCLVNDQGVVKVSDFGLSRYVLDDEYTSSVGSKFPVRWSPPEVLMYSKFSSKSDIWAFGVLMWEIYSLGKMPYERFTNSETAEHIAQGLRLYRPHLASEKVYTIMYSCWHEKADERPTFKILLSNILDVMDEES
Chain of phosphorylated BTK in Ramos cells (Q06187 whole entry): as above

Compound: C[C@H]1CN(C2COC2)CCN1c1ccc(Nc2cc(-c3ccnc(-n4ccn5c(cc6ccccc65)c4=O)c3CO)nn(C)c2=O)nc1 [Compound 76]
- IC50 [1]: 123 nM
- IC50 [2]: 60 nM

Compound: Cc1ccc(Nc2cc(-c3ccnc(-n4ccn5c6c(cc5c4=O)CC(C)(C)C6)c3CO)cn(C)c2=O)nn1 [Compound 85]
- IC50 [1]: 11 nM
- IC50 [2]: 2 nM

Compound: Cn1cc(Nc2cc(-c3ccnc(-n4ccn5c6c(cc5c4=O)CC(C)(C)C6)c3CO)cn(C)c2=O)cn1 [Compound 86]
- IC50 [1]: 16 nM
- IC50 [2]: 6 nM

Compound: Cc1cc(Nc2cc(-c3ccnc(-n4ccn5c6c(cc5c4=O)CC(C)(C)C6)c3CO)cn(C)c2=O)no1 [Compound 87]
- IC50 [1]: 11 nM
- IC50 [2]: 3 nM

Compound: Cn1cc(-c2ccnc(-n3ccn4c5c(cc4c3=O)CC(C)(C)C5)c2CO)cc(NC(=O)C2CC2)c1=O [Compound 89]
- IC50 [1]: 11 nM
- IC50 [2]: 8 nM

Compound: C[C@H]1CN(C2COC2)CCN1c1ccc(Nc2cc(-c3ccnc(-n4ccn5c6c(cc5c4=O)CCCCC6)c3CO)cn(C)c2=O)nc1 [Compound 92]
- IC50 [1]: 10 nM
- IC50 [2]: 7 nM

Compound: C[C@H]1CN(C2COC2)CCN1c1ccc(Nc2cc(-c3ccnc(-n4ccn5c6c(cc5c4=O)COCC6)c3CO)cn(C)c2=O)nc1 [Compound 93]
- IC50 [1]: 49 nM
- IC50 [2]: 46 nM

Compound: [2H]C1(N2CCN(c3ccc(Nc4cc(-c5ccnc(-n6ccn7c8c(cc7c6=O)CC(C)(C)C8)c5CO)cn(C)c4=O)nc3)[C@@H](C)C2)COC1 [Compound 94]
- IC50 [1]: 7 nM
- IC50 [2]: 2 nM

Compound: C[C@H]1CNCCN1c1ccc(Nc2cc(-c3ccnc(-n4ccn5c6c(cc5c4=O)CC(C)(C)C6)c3CO)cn(C)c2=O)nc1 [Compound 96]
- IC50 [1]: 7 nM
- IC50 [2]: 5 nM

Compound: [2H]C(O)c1c(-c2cc(Nc3ccc(N4CCN(C5COC5)C[C@@H]4C)cn3)c(=O)n(C)c2)ccnc1-n1ccn2c3c(cc2c1=O)CC(C)(C)C3 (stereo partly drawn) [Compound 100]
- IC50 [1]: 5 nM
- IC50 [2]: 2 nM

Continued by falling IC50 [1], values first:

- IC50 [1]: 441 nM
- IC50 [2]: 132 nM
Compound: Cn1cc(-c2ccnc(-n3ccn4c5c(cc4c3=O)CC(C)(C)C5)c2CO)cc(Nc2ccccc2)c1=O [Compound 77]

- IC50 [1]: 26 nM
- IC50 [2]: 7 nM
Compound: Cn1cc(-c2ccnc(-n3ccn4c5c(cc4c3=O)CC(C)(C)C5)c2CO)cc(Nc2ccc(F)cn2)c1=O [Compound 90]

- IC50 [1]: 17 nM
- IC50 [2]: 4 nM
Compound: CC[C@H]1CN(C2COC2)CCN1c1ccc(Nc2cc(-c3ccnc(-n4ccn5c6c(cc5c4=O)CC(C)(C)C6)c3CO)cn(C)c2=O)nc1 [Compound 91]

- IC50 [1]: 13 nM
- IC50 [2]: 13 nM
Compound: Cn1cc(-c2ccnc(-n3ccn4c5c(cc4c3=O)CC(C)(C)C5)c2CO)cc(Nc2ccncn2)c1=O [Compound 83]

- IC50 [1]: 10 nM
- IC50 [2]: 3 nM
Compound: Cn1cc(-c2ccnc(-n3ccn4c5c(cc4c3=O)CC(C)(C)C5)c2CO)cc(Nc2ccc(N3CCN(C4COC4)CC3(C)C)cn2)c1=O [Compound 95]

- IC50 [1]: 9 nM
- IC50 [2]: 11 nM
Compound: Cn1cc(-c2ccnc(-n3ccn4c5c(cc4c3=O)CC(C)(C)C5)c2CO)cc(Nc2cccnn2)c1=O [Compound 84]

- IC50 [1]: 9 nM
- IC50 [2]: 3 nM
Compound: [2H]C([2H])([2H])n1cc(-c2ccnc(-n3ccn4c5c(cc4c3=O)CC(C)(C)C5)c2CO)cc(Nc2ccc(N3CCN(C4COC4)C[C@@H]3C)cn2)c1=O [Compound 97]

- IC50 [1]: 8 nM
- IC50 [2]: 2 nM
Compound: Cn1ccc(Nc2cc(-c3ccnc(-n4ccn5c6c(cc5c4=O)CC(C)(C)C6)c3CO)cn(C)c2=O)n1 [Compound 81]

- IC50 [1]: 6 nM
- IC50 [2]: 2 nM
Compound: Cc1cc(Nc2cc(-c3ccnc(-n4ccn5c6c(cc5c4=O)CC(C)(C)C6)c3CO)cn(C)c2=O)nn1C [Compound 82]

- IC50 [1]: 6 nM
- IC50 [2]: 4 nM
Compound: Cn1nc(Nc2cc(-c3ccnc(-n4ccn5c6c(cc5c4=O)CC(C)(C)C6)c3CO)cn(C)c2=O)cc1C(=O)N1CCOCC1 [Compound 99]

- IC50 [1]: 5 nM
- IC50 [2]: 2 nM
Compound: C[C@@H]1CN(C2COC2)CCN1c1ccc(Nc2cc(-c3ccnc(-n4ccn5c6c(cc5c4=O)CC(C)(C)C6)c3CO)cn(C)c2=O)nc1 [Compound 80]
